Results on 26 compounds are retold here after patent US12629374B2, “Antimalarial agents” (Merck Sharp & Dohme LLC, priority 2020, dated 2026).

The subject of one assay is ring stage parasites. As to the kind of experiment: Parasite growth potency assay, 72 hours, LDH readout. In kind it is cell-based. Particulars: 72 h, parasite growth measured by LDH assay after 72 hours at 37° C.; 0.7% rings, 2% haematocrit; read-out: EC50. An outline of the steps:
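Parasite growth was quantified by LDH assay after a −80 °C freeze-thaw. Before that, compound was incubated for 72 h at 37 °C under humidified gas with ring-stage cultures adjusted to 0.7% parasitemia and 2% haematocrit in serum- and albumax-supplemented RPMI-Hepes.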
For `CCC1(CC)CC(=O)N([C@H](c2cccc(C(=O)N[C@H]3CC(C)(C)Oc4ccccc43)c2)c2cncs2)C(=N)N1` (stereo in doubt) [Example 90C, 3-[(4,4-diethyl-2-imino-6-oxo-hexahydropyrimidin-1-yl)-thiazol-5-yl-methyl]-N-(2,2-dimethylchroman-4-yl)benzamide], the EC50 is 12 nM. On the same count and under the same terms, the same measure for `CC[C@]1(C(C)C)CC(=O)N(Cc2cc(F)cc(C(=O)N[C@@H]3c4ccccc4C[C@H]3O)c2)C(=N)N1` [Example 45, [(4R)-4-ethyl-1-[[3-fluoro-5-[[(1R,2R)-2-hydroxyindan-1-yl]carbamoyl]phenyl]methyl]-4-isopropyl-6-oxo-hexahydropyrimidin-2-ylidene]ammonium; 2,2,2-trifluoroacetate]: 2.6 nM; for `CC[C@]1(CC(C)C)CC(=O)N(Cc2cc(F)cc(C(=O)N[C@@H]3c4ccccc4C[C@H]3O)c2)C(=N)N1` [Example 47, [(4S)-4-ethyl-1-[[3-fluoro-5-[[(1R,2R)-2-hydroxyindan-1-yl]carbamoyl]phenyl]methyl]-4-isobutyl-6-oxo-hexahydropyrimidin-2-ylidene]ammonium; 2,2,2-trifluoroacetate]: 6.5 nM; for `CCC1(CC)CC(=O)N(Cc2ccc(F)c(C(=O)N[C@H]3CCOc4ccccc43)c2)C(=N)N1` [Example 21, [1-[[3-[[(4S)-chroman-4-yl]carbamoyl]-4-fluoro-phenyl]methyl]-4,4-diethyl-6-oxo-hexahydropyrimidin-2-ylidene]ammonium; 2,2,2-trifluoroacetate]: 3.5 nM. On the same count and under the same terms, as for `CCC1(CC)CC(=O)N([C@@H](c2cccc(C(=O)N[C@@H]3c4ccccc4C[C@H]3O)c2)c2cccc(S(C)(=O)=O)c2)C(=N)N1` [Example 124A, [4,4-diethyl-1-[[3-[[(1R,2R)-2-hydroxyindan-1-yl]carbamoyl]phenyl]-(3-methylsulfonylphenyl)methyl]-6-oxo-hexahydropyrimidin-2-ylidene]ammonium; 2,2,2-trifluoroacetate], the figure is 9.9 nM; as for `CCC[C@H](c1cccc(C(=O)N[C@H]2CC3(CCC3)Oc3ccccc32)c1)N1C(=N)NC(CC)(CC)CC1=O` (stereo in doubt) [Example 212B, [4,4-diethyl-6-oxo-1-[(1R)-1-[3-[[(4R)-spiro[chromane-2,1′-cyclobutane]-4-yl]carbamoyl]phenyl]butyl]hexahydropyrimidin-2-ylidene]ammonium; 2,2,2-trifluoroacetate], 0.9 nM; as for `C[C@H](c1cccc(C(=O)NC2c3ccccc3OC(C)(C)C2(C)O)c1)N1C(=N)NC(C)(C)CC1=O` (stereo partly drawn) [Example 222, N-(3-hydroxy-2,2,3-trimethyl-chroman-4-yl)-3-[(1R)-1-(2-imino-4,4-dimethyl-6-oxo-hexahydropyrimidin-1-yl)ethyl]benzamide], 2.28 nM.

In the case of `CCC1(CC)CC(=O)N([C@H](c2ccccc2)c2cccc(C(=O)N[C@H]3CCOc4ccccc43)c2)C(=N)N1` [Example 4A, [1-[[3-[[(4S)-chroman-4-yl]carbamoyl]phenyl]-phenyl-methyl]-4,4-diethyl-6-oxo-hexahydropyrimidin-2-ylidene]ammonium; 2,2,2-trifluoroacetate], the EC50 was found to be 0.4 nM. The same measure, in the same setting: as for `CCC1(CC)CC(=O)N([C@@H](CCOC)c2cccc(C(=O)NC3CC(C)(C)Oc4ccccc43)c2)C(=N)N1` (stereo in doubt) [Example 72A, [1-[1-[3-[(2,2-dimethylchroman-4-yl)carbamoyl]phenyl]-3-methoxy-propyl]-4,4-diethyl-6-oxo-hexahydropyrimidin-2-ylidene]ammonium; 2,2,2-trifluoroacetate], the figure is 25.5 nM; as for `CCC1(CC)CC(=O)N([C@H](CCOC)c2cccc(C(=O)N[C@@H]3c4ccccc4OC(C)(C)C3(C)O)c2)C(=N)N1` (stereo partly drawn) [Example 203, 3-[(1R)-1-(4,4-diethyl-2-imino-6-oxo-hexahydropyrimidin-1-yl)-3-methoxy-propyl]-N-(3-hydroxy-2,2,3-trimethyl-chroman-4-yl)benzamide], 0.3 nM. Same read-out and setting: the same measure for `CC[C@]1(C(C)C)CC(=O)N(Cc2cc(F)cc(C(=O)N[C@H]3CCOc4ccccc43)c2)C(=N)N1` [Example 44, [(4R)-1-[[3-[[(4S)-chroman-4-yl]carbamoyl]-5-fluoro-phenyl]methyl]-4-ethyl-4-isopropyl-6-oxo-hexahydropyrimidin-2-ylidene]ammonium; 2,2,2-trifluoroacetate]: 2.6 nM; for `CCC1(CC)CC(=O)N([C@H](CCN2CCOCC2)c2cccc(C(=O)N[C@H]3CC(C)(C)Oc4ccccc43)c2)C(=N)N1` [Example 135, [1-[1-[3-[[(4S)-2,2-dimethylchroman-4-yl]carbamoyl]phenyl]-3-morpholin-4-ium-4-yl-propyl]-4,4-diethyl-6-oxo-hexahydropyrimidin-2-ylidene]ammonium; 2,2,2-trifluoroacetate]: 1 nM. Still for that read-out and setting: as for `CC[C@@]1(C(F)(F)F)CC(=O)N(Cc2cc(F)cc(C(=O)N[C@H]3CCOc4ccccc43)c2)C(=N)N1` [Example 63, [(4S)-1-[[3-[[(4S)-chroman-4-yl]carbamoyl]-5-fluoro-phenyl]methyl]-4-ethyl-6-oxo-4-(trifluoromethyl)hexahydropyrimidin-2-ylidene]ammonium; 2,2,2-trifluoroacetate], the figure is 80.2 nM; as for `CC1(C)CC(=O)N(Cc2cc(F)cc(C(=O)N[C@@H]3c4ccccc4OC(C)(C)[C@H]3O)c2)C(=N)N1` [Example 183, [1-[[3-fluoro-5-[[(3S,4R)-3-hydroxy-2,2-dimethyl-chroman-4-yl]carbamoyl]phenyl]methyl]-4,4-dimethyl-6-oxo-hexahydropyrimidin-2-ylidene]ammonium; 2,2,2-trifluoroacetate], 9.1 nM. For the compound `CCC1(CC)CC(=O)N(Cc2cccc(C(=O)N[C@H]3CCOc4ccc(C)cc43)c2)C(=N)N1` (stereo in doubt) [Example 217, 3-[(4,4-diethyl-2-imino-6-oxo-hexahydropyrimidin-1-yl)methyl]-N-(6-methylchroman-4-yl)benzamide], the 50% effective concentration (EC50) turned out to be 10 nM. On the same count and under the same terms, the same measure for `CCC1(COC)CC(=O)N(Cc2cccc(C(=O)N[C@H]3CC(C)(C)Oc4ccccc43)c2)C(=N)N1` (stereo partly drawn) [Example 98A, [1-[[3-[[(4S)-2,2-dimethylchroman-4-yl]carbamoyl]phenyl]methyl]-4-ethyl-4-(methoxymethyl)-6-oxo-hexahydropyrimidin-2-ylidene]ammonium; 2,2,2-trifluoroacetate]: 15.5 nM; for `CCC[C@H](c1cccc(C(=O)NC2CC(C)(C)Oc3ccccc32)c1)N1C(=N)NC(CC)(CC)CC1=O` (stereo in doubt) [Example 62A, [1-[1-[3-[(2,2-dimethylchroman-4-yl)carbamoyl]phenyl]butyl]-4,4-diethyl-6-oxo-hexahydropyrimidin-2-ylidene]ammonium; 2,2,2-trifluoroacetate]: 0.4 nM.

With `CCC1(CC)CC(=O)N([C@@H](c2cccnc2)c2cccc(C(=O)N[C@@H]3c4ccccc4C[C@H]3O)c2)C(=N)N1` [Example 109B, [4,4-diethyl-1-[[3-[[(1R,2R)-2-hydroxyindan-1-yl]carbamoyl]phenyl]-pyridin-1-ium-3-yl-methyl]-6-oxo-hexahydropyrimidin-2-ylidene]ammonium; 2,2,2-trifluoroacetate], the EC50 was 22.9 nM.

On to `C=C=C(C)[C@H](c1cccc(C(=O)N[C@H]2CCOc3ccccc32)c1)N1C(=N)NC(CC)(CC)CC1=O` [Example 78, [1-[1-[3-[[(4S)-chroman-4-yl]carbamoyl]phenyl]-2-methyl-buta-2,3-dienyl]-4,4-diethyl-6-oxo-hexahydropyrimidin-2-ylidene]ammonium; 2,2,2-trifluoroacetate], for which the EC50 turned out to be 3.1 nM. Same read-out and setting: as for `CCC1(CC)CC(=O)N(Cc2cccc(C(=O)N[C@@H]3CCOc4ccc(Cl)cc43)c2)C(=N)N1` [Example 215A, N-(6-chlorochroman-4-yl)-3-[(4,4-diethyl-2-imino-6-oxo-hexahydropyrimidin-1-yl)methyl]benzamide], the figure is 70 nM.

Staying with this assay, now noted: parasite growth measured by LDH assay after 72 hours at 37° C.; 0.7% rings, 2% haematocrit; read-out: EC50.
With `CC[C@]1(C)CC(=O)N(C(CCOC(F)F)c2cccc(C(=O)NC3c4ccccc4OC(C)(C)C3(C)O)c2)C(=N)N1` (single isomer, unassigned) [Example 240B], the EC50 was 0.25 nM. Consider `CCC1(CC)CC(=O)N(C(CC(OC)C(F)(F)F)c2cccc(C(=O)N[C@@H]3c4ccccc4C[C@H]3O)c2)C(=N)N1` (single isomer, unassigned) [Example 238D], for which the EC50 came to 2.25 nM. `CCC1(CC)CC(=O)N(C(COC)c2cccc(C(=O)N[C@@H]3c4ccccc4OC[C@@]3(C)O)c2)C(=N)N1` (stereo partly drawn) [Example 230, 3-[l-(4,4-diethyl-2-imino-6-oxo-hexahydropyrimidin-1-yl)-2-methoxy-ethyl]-N-[(3S,4R)-3-hydroxy-3-methyl-chroman-4-yl]benzamide]: the EC50 was 0.84 nM. In the case of `CCC1(CC)CC(=O)N([C@H](CCOC)c2cc(F)cc(C(=O)N[C@@H]3c4ccccc4CC3(C)O)c2)C(=N)N1` (stereo in doubt) [Example 144B, 3-[1-(4,4-diethyl-2-imino-6-oxo-hexahydropyrimidin-1-yl)-3-methoxy-propyl]-5-fluoro-N-(2-hydroxy-2-methyl-indan-1-yl)benzamide], the concentration for a half-maximal effect (EC50) worked out at 1.9 nM. The same measure, in the same setting: as for `CCC1(CC)CC(=O)N(C(c2cncnc2)c2cccc(C(=O)NC3CC(C)(C)Oc4ccccc43)c2)C(=N)N1` (single isomer, unassigned) [Example 92A, 3-[(4,4-diethyl-2-imino-6-oxo-hexahydropyrimidin-1-yl)-pyrimidin-5-yl-methyl]-N-(2,2-dimethylchroman-4-yl)benzamide], the figure is 25.5 nM.

The same assay, now with this note: parasite growth measured by LDH assay after 72 hours at 37° C.; 0.7% rings, 2% haematocrit; trifluoroacetate; read-out: EC50.
Turning to `CCC1(CC)CC(=O)N(Cc2cncc(C(=O)NC3CC(C)(C)Oc4ccccc43)c2)C(=N)N1` (centres unmarked) [Example 81, [1-[[5-[(2,2-dimethylchroman-4-yl)carbamoyl]pyridin-1-ium-3-yl]methyl]-4,4-diethyl-6-oxo-hexahydropyrimidin-2-ylidene]ammonium; 2,2,2-trifluoroacetate], the half-maximal effective concentration (EC50) worked out at 1.3 nM.
